In US11987576B2, “Compositions and methods for decreasing, or preventing or reversing gain of, skin pigmentation in a mammalian subject” (THE TRUSTEES OF THE UNIVERSITY OF PENNSYLVANIA, priority 2015, dated 2024):

Legend:
ER = conditions: cited from earlier work
3-D organotypic skin [1] = assay: Fontana-Masson melanin staining of 3-D organotypic skin; format: cell-based, human; conditions: vs vehicle
3-D organotypic skin [2] = assay: MITF immunohistochemistry of organotypic skin (melanocyte population density); format: cell-based, human; conditions: vs vehicle
Text: Formalin fixed paraffin embedded (FFPE) human skin tissue sections from organotypic tissue was stained for MITF protein expression using a primary antibody to MITF (Leica Biosystems, NCL-L-MITF, 1:15).

cAMP = cAMP ELISA on primary human melanocytes; format: cell-based
Description: cAMP ELISA was performed on primary human melanocytes using the Cyclic AMP XP Assay Kit (Cell Signaling Technology, #4339) following manufacturer instructions.

pCREB and MITF = assay: Western blot of classical melanin pathway regulators in melanocytes; format: cell-based, human; conditions: 1 μM overnight
Description: Adherent cells were treated with 1 μM doses of E2 and P4 overnight, washed once with DPBS, and lysed with 1% NP-40 buffer (150 mM NaCl, 50 mM Tris, pH 7.5, 1 mM EDTA, and 1% NP-40) containing 1× protease inhibitors (Roche) and 1× phosphatase inhibitors (Roche). Lysates were quantified (Bradford assay), normalized, reduced, denatured (95° C.) and resolved by SDS gel electrophoresis on 4-15% Tris/Glycine gels (Bio-Rad). Resolved protein was transferred to PVDF membranes (Millipore) using a Semi-Dry Transfer Cell (Bio-Rad), blocked in 5% dry milk in TBS-T and probed with primary antibodies recognizing MITF (Cell Signaling Technology, #12590, 1:1000), pCREB (Cell Signaling Technology, #9198, 1:1000), CREB (Cell Signaling Technology, #9104, 1:1000), and β-Actin (Cell Signaling Technology, #3700, 1:4000). After incubation with the appropriate secondary antibody, proteins were detected using either Luminata Crescendo Western HRP Substrate (Millipore) or ECL Western Blotting Analysis System (GE Healthcare).

PR = target: T1, PR (Homo sapiens, UniProt P06401); conditions: cited from earlier work
T1 sequence (P06401 1-933): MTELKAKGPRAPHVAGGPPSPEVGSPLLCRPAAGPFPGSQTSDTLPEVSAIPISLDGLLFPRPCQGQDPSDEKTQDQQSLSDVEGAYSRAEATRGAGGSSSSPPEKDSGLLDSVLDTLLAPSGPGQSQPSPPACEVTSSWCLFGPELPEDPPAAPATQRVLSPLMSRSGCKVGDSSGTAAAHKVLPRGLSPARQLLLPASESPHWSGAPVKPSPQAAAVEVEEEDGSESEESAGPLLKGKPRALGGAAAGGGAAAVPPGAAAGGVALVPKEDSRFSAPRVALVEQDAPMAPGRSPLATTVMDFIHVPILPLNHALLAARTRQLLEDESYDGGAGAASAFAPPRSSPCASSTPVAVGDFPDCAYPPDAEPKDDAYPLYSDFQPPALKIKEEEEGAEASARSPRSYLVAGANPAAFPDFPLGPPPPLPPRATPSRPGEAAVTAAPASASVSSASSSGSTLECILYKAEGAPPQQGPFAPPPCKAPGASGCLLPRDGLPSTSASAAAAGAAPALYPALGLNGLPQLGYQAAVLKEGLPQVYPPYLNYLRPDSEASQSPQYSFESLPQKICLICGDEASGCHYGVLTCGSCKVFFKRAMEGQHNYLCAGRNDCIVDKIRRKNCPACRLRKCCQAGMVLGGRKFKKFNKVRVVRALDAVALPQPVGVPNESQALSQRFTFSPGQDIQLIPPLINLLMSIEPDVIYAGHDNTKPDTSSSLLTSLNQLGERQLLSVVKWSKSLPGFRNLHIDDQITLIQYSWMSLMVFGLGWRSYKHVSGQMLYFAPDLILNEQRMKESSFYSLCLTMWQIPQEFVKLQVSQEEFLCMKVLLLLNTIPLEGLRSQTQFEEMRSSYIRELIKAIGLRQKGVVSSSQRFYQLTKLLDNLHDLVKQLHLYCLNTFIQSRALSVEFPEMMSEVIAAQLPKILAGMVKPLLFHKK

Row | SMILES | inhibitory activity against ER (ER) | melanin production in skin tissue (3-D organotypic skin [1]) | total melanocyte number or density (3-D organotypic skin [2]) | cAMP (cAMP) | MITF protein (pCREB and MITF) | pCREB protein (pCREB and MITF) | binding to PR (PR)
1 | Brc1cc2c(cc1[C@H]1Nc3ccccc3[C@@H]3C=CC[C@H]13)OCO2 (relative stereo) [G-15, rel-(3aS,4S,9bR)-4-(6-bromobenzo[d][1,3]dioxol-5-yl)-3a,4,5,9b-tetrahydro-3H-cyclopenta[c]quinoline] | do not have inhibitory activity | – | – | – | – | – | –
2 | CC(=O)[C@H]1CC[C@H]2[C@@H]3CCC4=CC(=O)CC[C@]4(C)[C@H]3CC[C@]12C [progesterone] | – | decreased melanin production by nearly half | without affecting overall melanocyte cell number | decreases | decreases | decreases | –
3 | C=C[C@]12CCC(=O)C=C1CC[C@H]1[C@@H]3CC[C@H](C(C)=O)[C@@]3(C)CC[C@@H]12 (relative stereo) [CH2P4, rel-(8S,9S,10S,13 S,14S,17S)-17-acetyl-13-methyl-10-vinyl-6,7,8,9,10,11,12,13,14,15,16,17-dodecahydro-1H-cyclopenta[a]phenanthren-3 (2H)-one] | – | decrease in melanin production | – | – | – | – | does not bind
